Results from patent publication US4847295A, “Cycloalkyl-substituted 4-aminophenyl halo derivatives and process for their preparation” (Farmitalia Carlo Erba S.r.l., priority 1987, dated 1989).

Tests used:
[1] = biological target: T1, human placental aromatase (Homo sapiens, UniProt P11511); assay: Inhibition of human placental aromatase in vitro (3H2O release from labelled androstenedione, microsomal fraction); format: biochemical; conditions: for Relative potency: versus aminoglutethimide (1 by definition)
T1 construct: isolated from the microsomal fraction of human placental tissue; from tissue; host or cells: human placenta, microsomal fraction
T1 sequence (P11511 1-503): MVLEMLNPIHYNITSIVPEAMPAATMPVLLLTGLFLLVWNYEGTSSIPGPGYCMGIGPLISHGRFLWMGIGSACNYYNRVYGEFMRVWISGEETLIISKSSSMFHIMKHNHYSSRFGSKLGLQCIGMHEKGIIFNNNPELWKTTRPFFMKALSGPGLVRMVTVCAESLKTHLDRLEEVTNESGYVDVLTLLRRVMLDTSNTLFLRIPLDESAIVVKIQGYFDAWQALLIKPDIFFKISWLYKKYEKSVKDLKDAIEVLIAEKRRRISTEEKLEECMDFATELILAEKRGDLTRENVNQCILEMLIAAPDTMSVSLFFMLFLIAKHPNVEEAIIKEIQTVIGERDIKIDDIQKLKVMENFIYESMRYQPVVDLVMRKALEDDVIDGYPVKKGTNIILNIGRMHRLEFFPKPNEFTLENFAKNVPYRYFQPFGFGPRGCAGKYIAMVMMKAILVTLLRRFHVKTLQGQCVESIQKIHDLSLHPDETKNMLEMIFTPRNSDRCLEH
Protocol: The assay of the aromatase inhibition in vitro was carried out as follows: the enzyme system was isolated from the microsomal fraction of human placental tissue according to standard procedure.
All incubations were carried out in a shaking water bath at 37° C. in air in 10 mM potassium phosphate buffer, pH 7.5, which contained 100 mM Kcl, 1 mM EDTA and 1 mM dithiothreitol. The experiments were carried out in 1 ml incubation volume containing 50 nM 4-[^3 H]androstenedione, various concentrations of the inhibitors. 100 μm NADPH and 0.05 mg of microsomal proteins. After 15 minutes of incubation the reaction was stopped by the addition of chloroform (5 ml).
After centrifugation at 1500 xg for 5 minutes, aliquots (0.5 ml) were removed from the water phase for determination of ^3 H2 O formed.

aromatase = conditions: reported in literature; cited from earlier work

Row | Compound | Relative potency [1] | aromatase-inhibiting action (in words) (aromatase) | IC50 ([1]; human placental microsomes, 50 nM 4-[3H]androstenedione, 100 μm NADPH, pH 7.5, 37° C., 15 min) [nM]
1 | Nc1ccc(C2CCCCC2)cc1 [4-cyclohexylaniline] | 1.7 | more or less selective aromatase-inhibiting action | 
2 | CCC1(c2ccncc2)CCC(=O)NC1=O (centres unmarked) [4-pyridyl-3-ethyl-2,6-piperidinedione] |  | more or less selective aromatase-inhibiting action | 
3 | Nc1ccc(C(C(=O)NC2CCCCC2)C(F)(F)F)cc1 (racemic) [FCE 25331, N-cyclohexyl-2-(4'-aminophenyl)-3,3,3-trifluoropropanamide] | 6.4 |  | 330
